The values that follow come from patent publication US7276604B2, “Crystalline form of the sodium salt of 3-pyridyl-1-hydroxyethylidene-1,1-bisphosphonic acid” (Zentiva A.S., priority 2002, dated 2007).

Where a name gives a salt, the structure may show the parent alone. Some results are limits rather than exact numbers.

Holding throughout (assay type): physicochemical
Series [1] is described as follows: Drying in vacuum oven and re-uptake of water (stability of water content, Karl Fischer / TGA). Particulars: for water content after standing at 100% relative air humidity: within two hours; for hygroscopicity of the dried product: after drying in a vacuum oven. An excerpt: An useful example of such a hydrate is a modification that is characterized by water content 20 up to 23%, specially with 22.8 w. % of water, and sodium content 5.5 up to 7.5%, specially 6.4 up to 6.7 w. %. The specified water content is built in the crystal lattice and the mentioned crystalline modification is thermodynamically stable. By drying with several different drying regimes, the mentioned crystalline modification was dried to the water content corresponding to the pentahemihydrate, the monohydrate and the anhydrous form of sodium 3-pyridyl-1-hydroxyethylidene-1,1-bisphosphonate. When the substance is left standing on the air, the water content stabilizes spontaneously at the original level. Time that it takes for the water content to stabilize depends on relative humidity in the environment in which the dried substance is placed.
(§1) Water content in the substance was determined using a method according to Karl Fischer and TGA analyses. Sodium content in the substance was determined using acidobasic titration and AAS. Solubility tests were performed according to the Technical Guide European Pharmacopeia.
The dried product is hygroscopic. If the substance is left standing at room temperature and usual relative air humidity, the water content returns to the original level within 12 hours.
In the pentahydrate dried in a vacuum oven at 105° C., the substance's water content decreases to 3% after six hours. The dried product is hygroscopic. If the substance is left standing at room temperature and usual relative air humidity, the water content increases with a speed of about 0.5% an hour. Within 11 days, the substance's water content returns to about 20 weight %.
In trihydrate of the trisodium salt dried in a vacuum oven at 105° C., the substance's water content decreases to 1.1% after 6 hours. The dried product is hygroscopic. If the substance is placed in an environment with 100% relative air humidity, the water content returns to the original level within two hours.
In trihydrate of the disodium salt dried in a vacuum oven at 105° C., the substance's water content decreases to approximately 1.7% after 6 hours. The dried product is hygroscopic. If the substance is placed in an environment with 100% relative air humidity, the water content returns to the level of approximately 5.2% within two hours.

The nature of series [2]: Solubility test in 0.1 M HCl with pH 1.1 (Technical Guide European Pharmacopeia). The note with it: for dissolution observed: 0.1 M HCl pH 1.1, 0.1, 0.9, 2.0 and 7.0 ml added gradually, 25° C. for 15 min; for proportion of the dissolved substance: 0.1 M HCl pH 1.1, 10.0 ml added in total to about 100 mg, 25° C., HPLC. Here is the method: as §1
0.1 ml; 0.9 ml, 2.0 and 7.0 ml of 0.1 M HCl with pH 1.1 were gradually added to a 106.8 mg sample of risedronate monosodium salt pentahemihydrate. The suspension was mixed for 1 min and tempered to 25° C. for 15 min after each addition of acid. […] The proportion of the dissolved substance was determined to be 9.46% using HPLC.
0.1 ml; 0.9 ml, 2.0 and 7.0 ml of 0.1 M HCl with pH 1.1 were gradually added to a 99.07 mg sample of risedronate monosodium salt pentahydrate. The suspension was mixed for 1 min and tempered to 25° C. for 15 min after each addition of acid. […] The proportion of the dissolved substance was determined to be 31.62% using HPLC.

Series [3] is described as follows: Solubility test in water (Technical Guide European Pharmacopeia). The note with it: for dissolution observed: 0.1, 0.9 and 2.0 ml added gradually, 25° C. for 15 min; for proportion of the dissolved substance: 3.0 ml added in total to about 100 mg, 25° C., HPLC. On the procedure: as §1
0.1 ml; 0.9 ml and 2.0 ml of water were gradually added to a 100.25 mg sample of risedronate monosodium salt pentahemihydrate. The suspension was mixed for about 1 min and tempered to 25° C. for 15 min after each addition of water. […] The proportion of the dissolved substance was determined to be 100% using HPLC.
0.1 ml; 0.9 ml and 2.0 ml of water were gradually added to a 98.78 mg sample of risedronate monosodium salt pentahydrate. The suspension was mixed for about 1 min and tempered to 25° C. for 15 min after each addition of water. […] The proportion of the dissolved substance was determined to be 100% using HPLC.

The mark [4] stands for this setting: after drying at 105° C., 100% relative air humidity.
Where [5] appears, read: vacuum oven at 105° C., after 6 hours.

`O=P(O)(O)C(O)(Cc1cccnc1)P(=O)(O)O` [Risedronate disodium salt monohydrate, disodium 3-pyridyl-1-hydroxyethylidene-1,1-bisphosphonate]: the “water content after standing at 100% relative air humidity” value in series [1] (after drying at 105° C., 100% relative air humidity, listed as trihydrate of the disodium salt) is recorded as “approximately 5.2%”. Also, the “period in which the water content mostly stabilizes at the given value” in series [1] (dried at different conditions, then high relative humidity, 'mostly') is on record as “less than 12 hours”. The “water content after drying” value in series [1] (vacuum oven at 105° C., after 6 hours, listed as trihydrate of the disodium salt) is listed as “approximately 1.7%”.
Consider `O=P(O)(O)C(O)(Cc1cccnc1)P(=O)(O)O` [risedronate monosodium salt pentahemihydrate] [monosodium 3-pyridyl-1-hydroxyethylidene-1,1-bisphosphonate, reference compound], for which, in series [2], the dissolution observed result was “did not dissolve completely” and the “proportion of the dissolved substance” value is on record as 9.46%. Besides, in series [3], the dissolution observed entry is given as “completely dissolved” and the “proportion of the dissolved substance” value is 100%.
For the molecule `O=P(O)(O)C(O)(Cc1cccnc1)P(=O)(O)O` [risedronate monosodium salt pentahydrate, monosodium 3-pyridyl-1-hydroxyethylidene-1,1-bisphosphonate], the “time for water content to return to the original level” value in series [1] (after drying at 50° C., room temperature and usual relative air humidity) is at most 12 h. For the same molecule, in series [1] (setting [4]), the “water content after standing at 100% relative air humidity” value was 22.7%. The “speed of water content increase” value in series [1] (after drying at 105° C., room temperature and usual relative air humidity) is “about 0.5 % an hour”. The “water content after standing” value in series [1] (after drying at 105° C., room temperature and usual relative air humidity, within 11 days) is “about 20 weight %”. Moreover, the “hygroscopicity of the dried product” value in series [1] is on record as “hygroscopic”. Also, the “stability of the regained water content” value in series [1] (usual lab conditions) was “stable and does not change”. The “water content after drying” value in series [1] (vacuum oven at 50° C., after six hours) was determined as 11.5%; in series [1] (setting [5]) it was 3%. Moreover, the “solubility in 0.1 M hydrochloric acid compared with the pentahemihydrate form” value in series [2] (0.1 M HCl pH 1.1) is on record as “significantly more soluble”. The dissolution observed entry is reported as “did not dissolve completely” in series [2] and “completely dissolved” in series [3]. Moreover, the figures for the “proportion of the dissolved substance” value in series [2] and in series [3] were 31.62% and 100%, respectively.
Regarding `O=P(O)(O)C(O)(Cc1cccnc1)P(=O)(O)O` [trihydrate of the trisodium salt, trisodium 3-pyridyl-1-hydroxyethylidene-1,1-bisphosphonate], in series [1] (setting [4]), the “time for water content to return to the original level” value is given as “two”. Also, the “hygroscopicity of the dried product” value in series [1] was “hygroscopic”. The “water content after drying” value in series [1] (setting [5]) was found to be 1.1%.
